Results as given in PubChem BioAssay AID330 (DTP/NCI, 2004).
“And” between values parts separate entries of the source, which are not always exact repeats. Equal values may be shown once. Toxic doses and inconclusive results are not listed. The calls were made as follows: active = survival T/C of 150% or more; inactive = T/C below 125% in these data.

Tested on: P388 leukemia ip, CD2F1 mice, survival T/C
Assay: NCI In Vivo Anticancer Drug Screen. Data for tumor model P388 Leukemia (intraperitoneal) in CD2F1 (CDF1) mice
Conditions: endpoint: median survival time, higher = longer survival
Method in brief: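 Mice carrying the transplanted tumor received test compound or vehicle. Survival was recorded in each group, and the value is the treated-group measurement divided by that of the vehicle-treated control group.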

[1] = dose: 12.5 mg/kg/injection, schedule: Q01DX009 (ip), vehicle: saline with Tween-80
[2] = dose: 60.0 mg/kg/injection, schedule: Q01DX005 (ip), vehicle: saline with Tween-80
[3] = dose: 120.0 mg/kg/injection, schedule: Q01DX005 (ip), vehicle: saline with Tween-80
[4] = dose: 240.0 mg/kg/injection, schedule: Q01DX005 (ip), vehicle: saline with Tween-80
[5] = dose: 50.0 mg/kg/injection, schedule: Q01DX009 (ip), vehicle: Klucel (hydroxypropylcellulose) (HPC)
[6] = dose: 100.0 mg/kg/injection, schedule: Q01DX009 (ip), vehicle: Klucel (hydroxypropylcellulose) (HPC)
[7] = dose: 200.0 mg/kg/injection, schedule: Q01DX009 (ip), vehicle: Klucel (hydroxypropylcellulose) (HPC)
[8] = dose: 50.0 mg/kg/injection, schedule: Q01DX005 (ip), vehicle: Klucel (hydroxypropylcellulose) (HPC)
[9] = dose: 100.0 mg/kg/injection, schedule: Q01DX005 (ip), vehicle: Klucel (hydroxypropylcellulose) (HPC)
[10] = dose: 60.0 mg/kg/injection, schedule: Q01DX005 (ip), vehicle: Klucel (hydroxypropylcellulose) (HPC)
[11] = dose: 120.0 mg/kg/injection, schedule: Q01DX005 (ip), vehicle: Klucel (hydroxypropylcellulose) (HPC)
[12] = dose: 50.0 mg/kg/injection, schedule: Q01DX009 (ip), vehicle: saline with Tween-80
[13] = dose: 100.0 mg/kg/injection, schedule: Q01DX009 (ip), vehicle: saline with Tween-80
[14] = dose: 100.0 mg/kg/injection, schedule: Q01DX001 (ip), vehicle: saline
[15] = dose: 200.0 mg/kg/injection, schedule: Q01DX001 (ip), vehicle: saline

Measured: T/C

COC(=O)C1=C(C)NC(=O)NC1c1ccc(N(CCCl)CCCl)c(OC)c1 (stereo not drawn)
active: dose: 1.56 mg/kg/injection, schedule: Q01DX009 (ip), vehicle: saline with Tween-80 160 % of control | dose: 3.13 mg/kg/injection, schedule: Q01DX009 (ip), vehicle: saline with Tween-80 186 % of control
inactive: dose: 6.25 mg/kg/injection, schedule: Q01DX009 (ip), vehicle: saline with Tween-80 117 % of control | [1] 96 % of control

NNc1ccc(-n2ncc(C(N)=O)c2N)nn1
inactive: dose: 50.0 mg/kg/injection, schedule: Q01DX005 (ip), vehicle: other 104 % of control | dose: 100.0 mg/kg/injection, schedule: Q01DX005 (ip), vehicle: other 107 % of control

C=CCNC(=S)N\N=C/C(/C=C/c1ccccc1)=N\NC(=S)NCC=C
inactive: dose: 100.0 mg/kg/injection, schedule: Q04DX002 (ip), vehicle: Klucel (hydroxypropylcellulose) (HPC) 103 % of control | dose: 200.0 mg/kg/injection, schedule: Q04DX002 (ip), vehicle: Klucel (hydroxypropylcellulose) (HPC) 91 % of control | dose: 400.0 mg/kg/injection, schedule: Q04DX002 (ip), vehicle: Klucel (hydroxypropylcellulose) (HPC) 91 % of control

CSc1c2c(c(C)c3c1[nH]c1ccccc13)C=NCC2
inactive: dose: 6.25 mg/kg/injection, schedule: Q04DX002 (ip), vehicle: distilled water + Tween-80 102 % of control | dose: 12.5 mg/kg/injection, schedule: Q04DX002 (ip), vehicle: distilled water + Tween-80 89 % of control | dose: 25.0 mg/kg/injection, schedule: Q04DX002 (ip), vehicle: distilled water + Tween-80 98 % of control | dose: 50.0 mg/kg/injection, schedule: Q04DX002 (ip), vehicle: distilled water + Tween-80 88 % of control | dose: 100.0 mg/kg/injection, schedule: Q04DX002 (ip), vehicle: distilled water + Tween-80 88 % of control

CCN(CC)CCNC(=O)Cc1cc(O)c2c(c1O)C(=O)c1ccccc1C2=O
inactive: dose: 100.0 mg/kg/injection, schedule: Q04DX003 (ip), vehicle: saline with Tween-80 106 % of control | dose: 200.0 mg/kg/injection, schedule: Q04DX003 (ip), vehicle: saline with Tween-80 106 % of control | dose: 400.0 mg/kg/injection, schedule: Q04DX003 (ip), vehicle: saline with Tween-80 106 % of control

O=C1NC(=O)C(Cc2ccccc2)(Cc2ccccc2)S1
inactive: [2] 100 % of control | [3] 103 % of control | [4] 96 % of control

CCCCCCCCCCCCCCCCCC(=O)Nc1ncc([N+](=O)[O-])s1
inactive: [5] 106 % of control | [6] 101 % of control | [7] 101 % of control

CCc1cc(-c2cc(CC)nc(N)n2)nc(N)n1
inactive: dose: 60.0 mg/kg/injection, schedule: Q01DX005 (ip), vehicle: saline 97 % of control | dose: 120.0 mg/kg/injection, schedule: Q01DX005 (ip), vehicle: saline 104 % of control | dose: 240.0 mg/kg/injection, schedule: Q01DX005 (ip), vehicle: saline 100 % of control

Nc1nc2ccc([N+](=O)[O-])cc2[nH]1
inactive: [5] 99 % of control | [6] 101 % of control | [7] 90 % of control

O=c1c2ccccc2[nH]c2c1[nH]c1ccccc12
inactive: [8] 89 % of control | [9] 90 % of control

O=C(Nc1n[nH]c(NC(=O)c2ccc([N+](=O)[O-])cc2)n1)c1ccc([N+](=O)[O-])cc1
inactive: [8] 93 % of control | [9] 90 % of control | dose: 200.0 mg/kg/injection, schedule: Q01DX005 (ip), vehicle: Klucel (hydroxypropylcellulose) (HPC) 90 % of control

COc1ccc(C(C#N)C(=O)C(=O)Nc2ccc(C)cc2C)cc1OC (stereo not drawn)
inactive: [2] 95 % of control | [3] 100 % of control

CNCC(C(=O)c1ccccc1)C(=O)c1ccccc1
inactive: dose: 50.0 mg/kg/injection, schedule: Q01DX005 (ip), vehicle: saline with Tween-80 95 % of control | dose: 100.0 mg/kg/injection, schedule: Q01DX005 (ip), vehicle: saline with Tween-80 101 % of control | dose: 200.0 mg/kg/injection, schedule: Q01DX005 (ip), vehicle: saline with Tween-80 110 % of control

Cc1ccc2nc3sc(=O)sc3nc2c1
inactive: [10] 101 % of control | [11] 107 % of control

CCc1cc(COC(C)=O)on1
inactive: [5] 105 % of control | [6] 109 % of control | [7] 109 % of control

Cc1ccc([N+](=O)[O-])cc1NC(=O)NNC(=O)CNC(=O)Nc1cccc(C(F)(F)F)c1
inactive: [2] 95 % of control | [3] 96 % of control | [4] 100 % of control

CCOC(=O)C(CC)/C(C)=N\NC(N)=S (stereo not drawn)
inactive: [10] 100 % of control | [11] 101 % of control | dose: 240.0 mg/kg/injection, schedule: Q01DX005 (ip), vehicle: Klucel (hydroxypropylcellulose) (HPC) 99 % of control

N#Cc1cccc(CN2CCCNCC2)c1
inactive: dose: 6.25 mg/kg/injection, schedule: Q01DX009 (ip), vehicle: water 94 % of control | dose: 12.5 mg/kg/injection, schedule: Q01DX009 (ip), vehicle: water 94 % of control | dose: 25.0 mg/kg/injection, schedule: Q01DX009 (ip), vehicle: water 103 % of control | dose: 50.0 mg/kg/injection, schedule: Q01DX009 (ip), vehicle: water 109 % of control | dose: 100.0 mg/kg/injection, schedule: Q01DX009 (ip), vehicle: water 105 % of control

CN(C)C12CCCCCC1S(=O)(=O)C2 (stereo not drawn)
inactive: [12] 94 % of control | [13] 94 % of control

CC1(C)OC2C3COC(O3)C(O)C2O1 (stereo not drawn)
inactive: [14] 107 % of control | [15] 98 % of control | dose: 400.0 mg/kg/injection, schedule: Q01DX001 (ip), vehicle: saline 112 % of control

CCCCOc1cccc2c(NCCNc3c4ccccc4nc4c(OCCCC)cccc34)c3ccccc3nc12
inactive: dose: 0.62 mg/kg/injection, schedule: Q01DX009 (ip), vehicle: other 105 % of control | dose: 1.25 mg/kg/injection, schedule: Q01DX009 (ip), vehicle: other 109 % of control | dose: 2.5 mg/kg/injection, schedule: Q01DX009 (ip), vehicle: other 101 % of control | dose: 5.0 mg/kg/injection, schedule: Q01DX009 (ip), vehicle: other 100 % of control | dose: 10.0 mg/kg/injection, schedule: Q01DX009 (ip), vehicle: other 100 % of control

COC(=O)c1nnn(-c2cccc(C(F)(F)F)c2)c1N
inactive: [2] 89 % of control | [3] 90 % of control | [4] 100 % of control

COc1cc2c(c(OC)c1OC)-c1cc3c(cc1CC(CO)C(CO)C2)OCO3 (stereo not drawn)
inactive: dose: 0.5 mg/kg/injection, schedule: Q04DX002 (ip), vehicle: saline with Tween-80 101 % of control | dose: 1.0 mg/kg/injection, schedule: Q04DX002 (ip), vehicle: saline with Tween-80 106 % of control | dose: 2.0 mg/kg/injection, schedule: Q04DX002 (ip), vehicle: saline with Tween-80 103 % of control

Nc1ncnc2c1c(-c1ccccc1)cn2-c1ccccc1
inactive: [2] 103 % of control | [3] 104 % of control | [4] 98 % of control

c1cc(Nc2ccc(Nc3ccc(CN4CCCCC4)cc3)cc2)ccc1CN1CCCCC1
inactive: dose: 12.5 mg/kg/injection, schedule: Q01DX009 (ip), vehicle: saline + Tween-80 + alcohol 105 % of control | [1] 103 % of control | dose: 25.0 mg/kg/injection, schedule: Q01DX009 (ip), vehicle: saline + Tween-80 + alcohol 111 % of control and 114 % of control | dose: 25.0 mg/kg/injection, schedule: Q01DX009 (ip), vehicle: saline with Tween-80 107 % of control | dose: 50.0 mg/kg/injection, schedule: Q01DX009 (ip), vehicle: saline + Tween-80 + alcohol 114 % of control and 115 % of control | [12] 111 % of control | dose: 100.0 mg/kg/injection, schedule: Q01DX009 (ip), vehicle: saline + Tween-80 + alcohol 117 % of control and 118 % of control | [13] 99 % of control | dose: 200.0 mg/kg/injection, schedule: Q01DX009 (ip), vehicle: saline + Tween-80 + alcohol 124 % of control | dose: 200.0 mg/kg/injection, schedule: Q01DX009 (ip), vehicle: saline with Tween-80 106 % of control | dose: 400.0 mg/kg/injection, schedule: Q01DX009 (ip), vehicle: saline with Tween-80 114 % of control

O=C1CCCN1C(=O)C1CC1
inactive: dose: 50.0 mg/kg/injection, schedule: Q01DX001 (ip), vehicle: saline 100 % of control | [14] 109 % of control | [15] 100 % of control
